BindingDB's records for doi:10.1021/jm701311r (Georgia Institute of Technology, 2008)

Tests used:
Assay in all cases: AE Enzyme Inhibition Assay
[1] = biological target: T1, Clan CD, family C13, asparaginyl endopeptidase-like cysteine peptidase (Trichomonas vaginalis (strain ATCC PRA-98 / G3), UniProt A2DYT2)
T1 sequence (A2DYT2 whole entry): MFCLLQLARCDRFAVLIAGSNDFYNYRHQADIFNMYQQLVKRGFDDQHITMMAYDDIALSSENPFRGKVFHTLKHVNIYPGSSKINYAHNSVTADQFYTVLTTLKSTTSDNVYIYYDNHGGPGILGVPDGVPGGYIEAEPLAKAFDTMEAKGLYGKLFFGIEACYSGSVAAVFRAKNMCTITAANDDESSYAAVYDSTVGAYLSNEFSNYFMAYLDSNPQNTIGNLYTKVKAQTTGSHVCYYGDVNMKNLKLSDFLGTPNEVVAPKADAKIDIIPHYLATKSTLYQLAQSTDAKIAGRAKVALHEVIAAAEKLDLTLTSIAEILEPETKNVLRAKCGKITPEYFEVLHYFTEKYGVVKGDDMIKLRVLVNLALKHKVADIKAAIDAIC
Procedure: (§1) AE activity in the induction medium was measured with the substrate Cbz-Ala-Ala-Asn-AMC. In a black 96-well microtiter plate, aza-peptidyl inhibitors were added to the reaction buffer containing the activated enzyme, and allowed to incubate at room temperature for 20 min. Then, substrate Cbz- Ala-Ala-Asn-AMC was added and the reaction allowed proceeding for 20 min. Plotting the relative fluorescence units (RFU)/min against the inhibitor concentration (uM) permitted calculation of the IC50 value.

Legumain [2] = biological target: T2, Legumain (Ixodes ricinus, UniProt Q6PRC7); details: 25 °C
T2 sequence (Q6PRC7 whole entry): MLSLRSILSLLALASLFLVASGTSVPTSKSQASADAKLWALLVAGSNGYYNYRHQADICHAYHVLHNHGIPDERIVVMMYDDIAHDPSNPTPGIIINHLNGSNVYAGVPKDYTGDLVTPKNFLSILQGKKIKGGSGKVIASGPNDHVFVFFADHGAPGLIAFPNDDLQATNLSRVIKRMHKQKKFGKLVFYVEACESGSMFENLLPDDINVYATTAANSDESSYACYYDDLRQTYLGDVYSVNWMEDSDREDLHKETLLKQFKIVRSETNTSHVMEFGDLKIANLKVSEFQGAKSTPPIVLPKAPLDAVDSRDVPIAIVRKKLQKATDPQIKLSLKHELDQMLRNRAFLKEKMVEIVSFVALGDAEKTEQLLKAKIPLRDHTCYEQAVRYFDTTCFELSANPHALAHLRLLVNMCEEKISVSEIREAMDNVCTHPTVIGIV
Procedure: as §1

Legumain [3] = biological target: T3, Legumain (Schistosoma mansoni, UniProt Q9NFY9)
T3 sequence (Q9NFY9 whole entry): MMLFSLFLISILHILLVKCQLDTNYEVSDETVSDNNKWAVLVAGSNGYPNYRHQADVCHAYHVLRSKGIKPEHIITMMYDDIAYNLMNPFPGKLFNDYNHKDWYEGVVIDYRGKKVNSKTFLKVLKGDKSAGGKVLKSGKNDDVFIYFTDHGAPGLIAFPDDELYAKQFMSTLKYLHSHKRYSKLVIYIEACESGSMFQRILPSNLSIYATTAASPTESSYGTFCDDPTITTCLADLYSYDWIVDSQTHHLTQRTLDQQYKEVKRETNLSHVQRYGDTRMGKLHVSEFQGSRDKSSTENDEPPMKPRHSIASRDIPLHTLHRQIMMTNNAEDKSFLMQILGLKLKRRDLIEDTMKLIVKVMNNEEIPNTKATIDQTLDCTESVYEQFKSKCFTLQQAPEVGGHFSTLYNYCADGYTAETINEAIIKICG
Procedure: as §1

SMILES | IC50 ([1]; pH 6.8, 22 °C) | IC50 (Legumain [2]) | IC50 ([1]; 25 °C) | IC50 (Legumain [3]; pH 6.8, 22 °C) | IC50 (Legumain [3]; 25 °C)
C[C@H](NC(=O)OCc1ccccc1)C(=O)N[C@@H](C)C(=O)NN(CC(N)=O)C(=O)C=CC(=O)OCc1ccccc1 [benzyl (2E)-3-{N'-[(2S)-2-[(2S)-2-{[(benzyloxy)carbonyl]amino}propanamido]propanoyl]-N-(carbamoylmethyl)hydrazinecarbonyl}prop-2-enoate] | 5 nM | < 1 nM |  |  | 
CC=CC=CC(=O)N(CC(N)=O)NC(=O)[C@H](C)NC(=O)[C@H](C)NC(=O)OCc1ccccc1 [benzyl N-[(1S)-1-{[(1S)-1-[N'-(carbamoylmethyl)-N'-(2E,4E)-hexa-2,4-dienoylhydrazinecarbonyl]ethyl]carbamoyl}ethyl]carbamate] |  |  | 8000 nM |  | 
CCCCN(CCCC)C(=O)C=CC(=O)N(CC(N)=O)NC(=O)[C@H](C)NC(=O)[C@H](C)NC(=O)OCc1ccccc1 [benzyl N-[(1S)-1-{[(1S)-1-[N'-(carbamoylmethyl)-N'-[(2E)-3-(dibutylcarbamoyl)prop-2-enoyl]hydrazinecarbonyl]ethyl]carbamoyl}ethyl]carbamate] | 1000 nM | 100 nM |  | 550 nM | 
CCN(CC)C(=O)C=CC(=O)N(CC(N)=O)NC(=O)[C@H](C)NC(=O)[C@H](C)NC(=O)OCc1ccccc1 [benzyl N-[(1S)-1-{[(1S)-1-[N'-(carbamoylmethyl)-N'-[(2E)-3-(diethylcarbamoyl)prop-2-enoyl]hydrazinecarbonyl]ethyl]carbamoyl}ethyl]carbamate] | 2000 nM | 2700 nM |  |  | 
C[C@H](NC(=O)OCc1ccccc1)C(=O)N[C@@H](C)C(=O)NN(CC(N)=O)C(=O)C=Cc1ccco1 [benzyl N-[(1S)-1-{[(1S)-1-[N'-(carbamoylmethyl)-N'-[(2E)-3-(furan-2-yl)prop-2-enoyl]hydrazinecarbonyl]ethyl]carbamoyl}ethyl]carbamate] |  | 7500 nM |  | > 2000 nM | 
C[C@H](NC(=O)OCc1ccccc1)C(=O)N[C@@H](C)C(=O)NN(CC(N)=O)C(=O)C=CC(=O)N1CCc2ccccc21 [benzyl N-[(1S)-1-{[(1S)-1-[N'-(carbamoylmethyl)-N'-[(2E)-4-(2,3-dihydro-1H-indol-1-yl)-4-oxobut-2-enoyl]hydrazinecarbonyl]ethyl]carbamoyl}ethyl]carbamate] |  | 18 nM | 50 nM |  | 70 nM
C[C@H](NC(=O)OCc1ccccc1)C(=O)N[C@@H](C)C(=O)NN(CC(N)=O)C(=O)C=CC(=O)N1Cc2ccccc2C1 [benzyl N-[(1S)-1-{[(1S)-1-[N'-(carbamoylmethyl)-N'-[(2E)-4-(2,3-dihydro-1H-isoindol-2-yl)-4-oxobut-2-enoyl]hydrazinecarbonyl]ethyl]carbamoyl}ethyl]carbamate] |  | 4.5 nM | 20 nM |  | 300 nM
C[C@H](NC(=O)OCc1ccccc1)C(=O)N[C@@H](C)C(=O)NN(CC(N)=O)C(=O)C=CC(=O)N(Cc1ccco1)Cc1ccco1 [benzyl N-[(1S)-1-{[(1S)-1-{N'-[(2E)-3-[bis(furan-2-ylmethyl)carbamoyl]prop-2-enoyl]-N'-(carbamoylmethyl)hydrazinecarbonyl}ethyl]carbamoyl}ethyl]carbamate] |  | 15000 nM | 5000 nM |  | 900 nM
C[C@H](NC(=O)OCc1ccccc1)C(=O)N[C@@H](C)C(=O)NN(CC(N)=O)C(=O)C=CC(=O)NCCc1ccccc1 [benzyl N-[(1S)-1-{[(2S)-1-[(2E)-3-[N-(carbamoylmethyl)hydrazido]-N-(2-phenylethyl)prop-2-enamide]-1-oxopropan-2-yl]carbamoyl}ethyl]carbamate] | 10 nM | 350 nM |  | 600 nM | 
C[C@H](NC(=O)OCc1ccccc1)C(=O)N[C@@H](C)C(=O)NN(CC(N)=O)C(=O)C=CC(=O)NCc1ccc(F)cc1 [benzyl N-[(1S)-1-{[(2S)-1-[(2E)-3-[N-(carbamoylmethyl)hydrazido]-N-[(4-fluorophenyl)methyl]prop-2-enamide]-1-oxopropan-2-yl]carbamoyl}ethyl]carbamate] | 75 nM | 250 nM |  | 800 nM | 
C[C@H](NC(=O)OCc1ccccc1)C(=O)N[C@@H](C)C(=O)NN(CC(N)=O)C(=O)C=CC(=O)N(C)CCc1ccccc1 [benzyl N-[(1S)-1-{[(2S)-1-[(2E)-3-[N-(carbamoylmethyl)hydrazido]-N-methyl-N-(2-phenylethyl)prop-2-enamide]-1-oxopropan-2-yl]carbamoyl}ethyl]carbamate] |  |  | 50 nM | 600 nM | 
C[C@H](NC(=O)OCc1ccccc1)C(=O)N[C@@H](C)C(=O)NN(CC(N)=O)C(=O)C=CC(=O)N(C)Cc1cccc2ccccc12 [benzyl N-[(1S)-1-{[(2S)-1-[(2E)-3-[N-(carbamoylmethyl)hydrazido]-N-methyl-N-(naphthalen-1-ylmethyl)prop-2-enamide]-1-oxopropan-2-yl]carbamoyl}ethyl]carbamate] |  | 5.5 nM | < 1 nM | 35 nM | 
C[C@H](NC(=O)OCc1ccccc1)C(=O)N[C@@H](C)C(=O)NN(CC(N)=O)C(=O)C=CC(=O)N(C)c1ccccc1 [benzyl N-[(1S)-1-{[(2S)-1-[(2E)-3-[N-(carbamoylmethyl)hydrazido]-N-methyl-N-phenylprop-2-enamide]-1-oxopropan-2-yl]carbamoyl}ethyl]carbamate] | 5 nM | 1.8 nM |  | 60 nM | 
C[C@H](NC(=O)OCc1ccccc1)C(=O)N[C@@H](C)C(=O)NN(CC(N)=O)C(=O)C=CC(=O)N(C)C(Cc1ccccc1)C(=O)N(C)CCc1ccccc1 (stereo partly drawn) [benzyl N-[(1S)-1-{[(2S)-1-[(2E)-3-[N-(carbamoylmethyl)hydrazido]-N-methyl-N-{1-[methyl(2-phenylethyl)carbamoyl]-2-phenylethyl}prop-2-enamide]-1-oxopropan-2-yl]carbamoyl}ethyl]carbamate] |  | 300 nM | 80 nM |  | 750 nM
C[C@H](NC(=O)OCc1ccccc1)C(=O)N[C@@H](C)C(=O)NN(CC(N)=O)C(=O)C=CC(=O)Nc1ccccc1 [benzyl N-[(1S)-1-{[(2S)-1-[(2E)-3-[N-(carbamoylmethyl)hydrazido]-N-phenylprop-2-enamide]-1-oxopropan-2-yl]carbamoyl}ethyl]carbamate] | 20 nM | 10 nM |  | 700 nM | 
C[C@H](NC(=O)OCc1ccccc1)C(=O)N[C@@H](C)C(=O)NN(CC(N)=O)C(=O)C=CC(=O)N1CCCCC1 [benzyl N-[(1S)-1-{[(2S)-1-[(2E)-N-(carbamoylmethyl)-4-oxo-4-(piperidin-1-yl)but-2-enehydrazido]-1-oxopropan-2-yl]carbamoyl}ethyl]carbamate] | 500 nM |  |  | 1000 nM | 
C[C@H](NC(=O)OCc1ccccc1)C(=O)N[C@@H](C)C(=O)NN(CC(N)=O)C(=O)C=CC(=O)c1ccccc1 [benzyl N-[(1S)-1-{[(2S)-1-[(2E)-N-(carbamoylmethyl)-4-oxo-4-phenylbut-2-enehydrazido]-1-oxopropan-2-yl]carbamoyl}ethyl]carbamate] |  | > 20000 nM | 10000 nM |  | 
C[C@H](NC(=O)OCc1ccccc1)C(=O)N[C@@H](C)C(=O)NN(CC(N)=O)C(=O)C=CC(=O)N(C)Cc1ccccc1 [benzyl N-[(1S)-1-{[(2S)-1-[(2E)-N-benzyl-3-[N-(carbamoylmethyl)hydrazido]-N-methylprop-2-enamide]-1-oxopropan-2-yl]carbamoyl}ethyl]carbamate] |  | < 1 nM | 0.55 nM |  | 
CCOC(=O)C=CC(=O)N(CC(N)=O)NC(=O)[C@H](C)NC(=O)[C@H](C)NC(=O)OCc1ccccc1 [ethyl (2E)-4-[(2S)-2-[(2S)-2-{[(benzyloxy)carbonyl]amino}propanamido]-N'-(carbamoylmethyl)propanehydrazido]-4-oxobut-2-enoate] | 4.5 nM | 4.5 nM |  |  | 
